Broadly, the IC50 is the concentration that inhibits the measured activity by half.

The subject of one test is MV-4-11 cells. The experiment in a line: Cell Viability Assay in MV-4-11 Cells. The class given is cell-based. As to conditions: Homo sapiens, MV4-11, 72 h. Here is the method:
MV-4-11 cells (ATCC) were seeded into sterile 96-well flat clear bottom white polystyrene TC-treated microplates (Corning) at 7,000 cells/well in 150 μL complete growth medium (Iscove's Modified Dulbecco's Medium (IMDM) (Gibco), 10% Heat Inactivated Fetal Bovine Serum (HyClone), 1% Penicillin-Streptomycin-L-Glutamine (HyClone), 1% GlutaMAX (Gibco)). […] After 72 h incubation, plates were removed from incubators and allowed to equilibrate to room temperature (˜10 min) before adding 50 μL per well Cell-Titer Glo reagent (Promega) using a WellJet (Integra Biosciences) dispenser. Plates were then incubated at room temperature for 2-20 min prior to measurement of luminescence on an Envision (Perkin Elmer) plate reader. Data were normalized to DMSO (100% viability) and analyzed using a non-linear four-parameter curve fit.
`Cc1cccc2ccnc(N(C(=O)c3ccc(C#N)cc3-c3cccnc3)[C@@H]3CCCNC3)c12` [Example 334, 4-cyano-N-(8-methyl-1-isoquinolyl)-N-[(3R)-3-piperidyl]-2-(3-pyridyl)benzamide] registered an IC50 above 10000 nM.
With `Cc1cccc2ccnc(N(C(=O)N3CCC[C@H](CCC(=O)Nc4ccccc4)C3)[C@@H]3CCCNC3)c12` [Example 344, N-(8-methylisoquinolin-1-yl)-3-(3-oxo-3-(phenylamino)propyl)-N—((R)-piperidin-3-yl) piperidine-1-carboxamide], the IC50 was determined as 930 nM.
As for `C=CCc1ccnc(N(C(=O)c2ccc(Cl)c(CC=C)c2)[C@@H]2CCCNC2)c1` [Example 362, 3-allyl-N-(4-allyl-2-pyridyl)-4-chloro-N-[(3R)-3-piperidyl]benzamide], inhibition was half-maximal at 4300 nM (IC50).

The same test, now with this note: Homo sapiens, MV4-11, 72 h, MV-4-11 cells, 72 h, Cell-Titer Glo; read-out: IC50.
Turning to `Cc1cccc2ccnc(N(C(=O)c3ccc(C#N)c(-c4ccc(-c5ccncc5)cc4)c3)[C@@H]3CCCNC3)c12` [Example 330, 4-cyano-N-(8-methyl-1-isoquinolyl)-N-[(3R)-3-piperidyl]-3-[4-(4-pyridyl)phenyl]benzamide], the half-inhibitory concentration (IC50) is 90 nM.
For the molecule `O=C(c1ccc(-n2nnc3cccnc32)cc1F)N(c1nccc2cc(/C=C/CO)ccc12)[C@@H]1CCCNC1` [Example 331, (R)-4-(3H-[1,2,3]triazolo[4,5-b]pyridin-3-yl)-2-fluoro-N-(6-(3-hydroxyprop-1-en-1-yl)isoquinolin-1-yl)-N-(piperidin-3-yl)benzamide], the concentration for half-maximal inhibition (IC50) is 81 nM.
For `Cc1cccc2ccnc(N(C(=O)c3ccc(-c4ccc[nH]c4=O)cc3)[C@@H]3CCCNC3)c12` [Example 332, (R)—N-(8-methylisoquinolin-1-yl)-4-(2-oxo-1,2-dihydropyridin-3-yl)-N-(piperidin-3-yl)benzamide], the IC50 amounted to 2700 nM.
The same measure, in the same setting: the same measure for `Cc1cccc2ccnc(N(C(=O)c3ccc(C#N)cc3-c3ccn[nH]3)[C@@H]3CCCNC3)c12` [Example 333, 4-cyano-N-(8-methyl-1-isoquinolyl)-N-[(3R)-3-piperidyl]-2-(1H-pyrazol-5-yl)benzamide]: above 10000 nM; for `Cc1cccc2ccnc(N(C(=O)c3ccc(C#N)cc3-c3ccccn3)[C@@H]3CCCNC3)c12` [Example 335, 4-cyano-N-(8-methyl-1-isoquinolyl)-N-[(3R)-3-piperidyl]-2-(2-pyridyl)benzamide]: 2600 nM.
The same measure, in the same setting: the same measure for `Cc1cccc2ccnc(N(C(=O)c3ccc(C#N)c(-c4cccc(-c5cccnc5)c4)c3)[C@@H]3CCCNC3)c12` [Example 336, 4-cyano-N-(8-methyl-1-isoquinolyl)-N-[(3R)-3-piperidyl]-3-[3-(3-pyridyl)phenyl]benzamide]: 270 nM; for `O=C(c1ccc(-n2nnc3cccnc32)cc1F)N(c1nccc2ccc(/C=C\CO)cc12)[C@@H]1CCCNC1` [Example 337, (R,Z)-4-(3H-[1,2,3]triazolo[4,5-b]pyridin-3-yl)-2-fluoro-N-(7-(3-hydroxyprop-1-en-1-yl)isoquinolin-1-yl)-N-(piperidin-3-yl)benzamide]: 250 nM.
Still for that read-out and setting: next, `Cc1cccc2ccnc(N(C(=O)N3CCC[C@@H](c4ccc(-n5cc6cccc(C(N)=O)c6n5)cc4)C3)[C@@H]3CCCNC3)c12` [Example 339, 2-(4-((S)-1-((8-methylisoquinolin-1-yl)((R)-piperidin-3-yl)carbamoyl)piperidin-3-yl)phenyl)-2H-indazole-7-carboxamide]: 550 nM.
With `Cc1cccc2ccnc(N(C(=O)N3CCC[C@@H](n4nc(-c5ccc(Oc6ccccc6)cc5)c5c(N)ncnc54)C3)[C@@H]3CCCNC3)c12` [Example 340, (R)-3-(4-amino-3-(4-phenoxyphenyl)-1H-pyrazolo[3,4-d]pyrimidin-1-yl)-N-(8-methylisoquinolin-1-yl)-N—((R)-piperidin-3-yl)piperidine-1-carboxamide], the IC50 was determined as 860 nM.
The same measure, in the same setting: the same measure for `Cc1cccc2ccnc(N(C(=O)N3CCCC(c4ncc(-c5ccccc5)[nH]4)C3)[C@@H]3CCCNC3)c12` (stereo partly drawn) [Example 341, N-(8-methylisoquinolin-1-yl)-3-(5-phenyl-1H-imidazol-2-yl)-N—((R)-piperidin-3-yl)piperidine-1-carboxamide]: 370 nM.
Take `Cc1cccc2ccnc(N(C(=O)N3CCCC4(CCN(C(=O)OCc5ccccc5)CC4)C3)[C@@H]3CCCNC3)c12` [Example 342, benzyl (R)-2-((8-methylisoquinolin-1-yl)(piperidin-3-yl)carbamoyl)-2,9-diazaspiro [5.5]undecane-9-carboxylate]: the 50% inhibitory concentration (IC50) amounted to 2000 nM.
The same measure, in the same setting: next, `Cc1cccc2ccnc(N(C(=O)N3CCc4[nH]nc(-c5ccccc5)c4C3)[C@@H]3CCCNC3)c12` [Example 343, (R)—N-(8-methylisoquinolin-1-yl)-3-phenyl-N-(piperidin-3-yl)-1,4,6,7-tetrahydro-5H-pyrazolo[4,3-c]pyridine-5-carboxamide]: 1400 nM.
The same measure, in the same setting: next, `Cc1cccc2ccnc(N(C(=O)N3CCCC(N4C(=O)c5ccccc5C4=O)C3)[C@@H]3CCCNC3)c12` (stereo partly drawn) [Example 345, 3-(1,3-dioxoisoindolin-2-yl)-N-(8-methylisoquinolin-1-yl)-N—((R)-piperidin-3-yl)piperidine-1-carboxamide]: 300 nM; `Cn1cc(-c2ccc(C(=O)N(c3cc(/C=C\CCO)ccn3)[C@@H]3CCCNC3)cc2)nn1` [Example 346, N-[4-[(Z)-4-hydroxybut-1-enyl]-2-pyridyl]-4-(1-methyltriazol-4-yl)-N-[(3R)-3-piperidyl] benzamide]: above 10000 nM.
Consider `Cc1cccc2ccnc(N(C(=O)N3CCC(c4cn(C)nn4)CC3)[C@@H]3CCCNC3)c12` [Example 347, N-(8-methyl-1-isoquinolyl)-4-(1-methyltriazol-4-yl)-N-[(3R)-3-piperidyl]piperidine-1-carboxamide], for which the IC50 was determined as 300 nM.
Same read-out and setting: the same measure for `Cn1cc(-c2ccc(C(=O)N(c3nccc4cccc(/C=C/c5cn[nH]c5)c34)[C@@H]3CCCNC3)cc2)nn1` [Example 348, (R,E)-N-(8-(2-(1H-pyrazol-4-yl)vinyl)isoquinolin-1-yl)-4-(1-methyl-1H-1,2,3-triazol-4-yl)-N-(piperidin-3-yl)benzamide]: 460 nM.
On the same count and under the same terms, the same measure for `Cn1cc(-c2ccc(C(=O)N(c3nccc4cccc(/C=C/c5cccnc5)c34)[C@@H]3CCCNC3)cc2)nn1` [Example 349, 4-(1-methyltriazol-4-yl)-N-[(3R)-3-piperidyl]-N-[8-[(E)-2-(3-pyridyl)vinyl]-1-isoquinolyl]benzamide]: 310 nM; for `Cc1cccc2ccnc(N(C(=O)c3ccc(-c4cncnc4N)cc3F)[C@@H]3CCCNC3)c12` [Example 353, (R)-4-(4-aminopyrimidin-5-yl)-2-fluoro-N-(8-methylisoquinolin-1-yl)-N-(piperidin-3-yl)benzamide]: 540 nM; for `Cc1ncnc(C)c1-c1ccc(C(=O)N(c2nccc3cccc(C)c23)[C@@H]2CCCNC2)c(F)c1` [Example 354, 4-(4,6-dimethylpyrimidin-5-yl)-2-fluoro-N-(8-methyl-1-isoquinolyl)-N-[(3R)-3-piperidyl]benzamide]: 970 nM.
Same read-out and setting: next, `Cc1nccc(N)c1-c1ccc(C(=O)N(c2nccc3cccc(C)c23)[C@@H]2CCCNC2)c(F)c1` [Example 361, (R)-4-(4-amino-2-methylpyridin-3-yl)-2-fluoro-N-(8-methylisoquinolin-1-yl)-N-(piperidin-3-yl)benzamide]: above 10000 nM.
